Read-outs that look alike come from different tables or passages of the source.
Columns and labels:
calf thymus (CT) DNA [1] = experiment: Thermal denaturation studies; assay type: binding; details: [PBD]:[DNA] molar ratio 1:5; CT-DNA 100 μM, ligand 20 μM; sodium phosphate buffer pH 7.00
Description: The DNA binding affinity of the C2-Fluoro substituted piperazine linked pyrrolo[2,1c][1,4]benzodiazepine dimers were subjected to thermal denaturation studies using calf thymus (CT) DNA (Jones, G. B.; Davey, C. L.; Jenkins, T. C.; Kamal, A.; Kneale, G. G.; Neidle, S.; Webster, G. D.; Thurston, D. E. Anti-cancer Drug Des. 1990, 5, 249. McConnaughie, A. W.; Jenkins, T. C. J. Med. Chem. 1995, 38, 3488). The studies for these compounds (IXa-f) were carried out by DNA/ligand molar ratio is 1:5 the increase in the helix melting temperature (ΔTm) for each compound was examined at 0 h. […] Data for DSB-120 and SJG-136 are included in Table-3 for comparison. The synthetic DC-81 dimer (DSB-120) gives a ΔTm 10.2° C. and SJC-136 gives a […]Tm of 25° C. under identical experimental condition.

[2] = test system: sixty human tumor cells derived from nine cancer types; experiment: NCI in vitro anticancer screen (SRB), whole panel; assay type: cell-based
Description: (§1) The above compounds were evaluated for in vitro anticancer activity against sixty human tumor cells derived from nine cancer types (leukemia, non small cell cancer, colon cancer CNS cancer, melanoma, ovarian cancer renal cancer, prostate cancer and breast cancer) as per NCI protocol. For each compound, dose response curves for each cell line were measured at a minimum of five concentrations at 10-fold dilution. A protocol of 48 h continuous drug exposure was used, and a sulforhodamine B (SRB) protein assay was used to estimate cell viability or growth. The concentration causing 50% cell growth inhibition (GI50), total cell growth inhibition (TGI, 0% growth) and 50% cell death (LC-50% growth) compared with the control was calculated.

M14 = experiment: NCI in vitro anticancer screen (SRB); assay type: cell-based, human; details: Melanoma, 48 h exposure
Description: as §1

HOP-62 = experiment: NCI in vitro anticancer screen (SRB); assay type: cell-based, human; details: Non-small cell lung, 48 h exposure
Description: as §1

MCF7 = experiment: NCI in vitro anticancer screen (SRB); assay type: cell-based, human; details: Breast, 48 h exposure
Description: as §1

SK-MEL-2 = experiment: NCI in vitro anticancer screen (SRB); assay type: cell-based, human; details: Melanoma, 48 h exposure
Description: as §1

T-47D = experiment: NCI in vitro anticancer screen (SRB); assay type: cell-based, human; details: Breast, 48 h exposure
Description: as §1

SNB-19 = experiment: NCI in vitro anticancer screen (SRB); assay type: cell-based, human; details: CNS, 48 h exposure
Description: as §1

MALME-3M = experiment: NCI in vitro anticancer screen (SRB); assay type: cell-based, human; details: Melanoma, 48 h exposure
Description: as §1

BT-549 = experiment: NCI in vitro anticancer screen (SRB); assay type: cell-based, human; details: Breast, 48 h exposure
Description: as §1

SK-MEL-28 = experiment: NCI in vitro anticancer screen (SRB); assay type: cell-based, human; details: Melanoma, 48 h exposure
Description: as §1

HL-60(TB) = experiment: NCI in vitro anticancer screen (SRB); assay type: cell-based, human; details: Leukemia, 48 h exposure
Description: as §1

SK-MEL-5 = experiment: NCI in vitro anticancer screen (SRB); assay type: cell-based, human; details: Melanoma, 48 h exposure
Description: as §1

SF-268 = experiment: NCI in vitro anticancer screen (SRB); assay type: cell-based, human; details: CNS, 48 h exposure
Description: as §1

SNB-75 = experiment: NCI in vitro anticancer screen (SRB); assay type: cell-based, human; details: CNS, 48 h exposure
Description: as §1

HOP-92 = experiment: NCI in vitro anticancer screen (SRB); assay type: cell-based, human; details: Non-small cell lung, 48 h exposure
Description: as §1

PC-3 = experiment: NCI in vitro anticancer screen (SRB); assay type: cell-based, human; details: Prostate, 48 h exposure
Description: as §1

HCT-116 = experiment: NCI in vitro anticancer screen (SRB); assay type: cell-based, human; details: Colon, 48 h exposure
Description: as §1

U251 = experiment: NCI in vitro anticancer screen (SRB); assay type: cell-based, human; details: CNS, 48 h exposure
Description: as §1

RPMI-8226 = experiment: NCI in vitro anticancer screen (SRB); assay type: cell-based, human; details: Leukemia, 48 h exposure
Description: as §1

SW-620 = experiment: NCI in vitro anticancer screen (SRB); assay type: cell-based, human; details: Colon, 48 h exposure
Description: as §1

UACC-62 = experiment: NCI in vitro anticancer screen (SRB); assay type: cell-based, human; details: Melanoma, 48 h exposure
Description: as §1

LOX IMVI = experiment: NCI in vitro anticancer screen (SRB); assay type: cell-based, human; details: Melanoma, 48 h exposure
Description: as §1

NCI-H23 = experiment: NCI in vitro anticancer screen (SRB); assay type: cell-based, human; details: Non-small cell lung, 48 h exposure
Description: as §1

NCI-H460 = experiment: NCI in vitro anticancer screen (SRB); assay type: cell-based, human; details: Non-small cell lung, 48 h exposure
Description: as §1

SR = experiment: NCI in vitro anticancer screen (SRB); assay type: cell-based, human; details: Leukemia, 48 h exposure
Description: as §1

SN12C = experiment: NCI in vitro anticancer screen (SRB); assay type: cell-based, human; details: Renal, 48 h exposure
Description: as §1

IGROV1 = experiment: NCI in vitro anticancer screen (SRB); assay type: cell-based, human; details: Ovarian, 48 h exposure
Description: as §1

HS 578T = experiment: NCI in vitro anticancer screen (SRB); assay type: cell-based, human; details: Breast, 48 h exposure
Description: as §1

SF-539 = experiment: NCI in vitro anticancer screen (SRB); assay type: cell-based, human; details: CNS, 48 h exposure
Description: as §1

MOLT-4 = experiment: NCI in vitro anticancer screen (SRB); assay type: cell-based, human; details: Leukemia, 48 h exposure
Description: as §1

DU-145 = experiment: NCI in vitro anticancer screen (SRB); assay type: cell-based, human; details: Prostate, 48 h exposure
Description: as §1

A498 = experiment: NCI in vitro anticancer screen (SRB); assay type: cell-based, human; details: Renal, 48 h exposure
Description: as §1

MDA-MB-435 = experiment: NCI in vitro anticancer screen (SRB); assay type: cell-based, human; details: Breast, 48 h exposure
Description: as §1

786-0 = experiment: NCI in vitro anticancer screen (SRB); assay type: cell-based, human; details: Renal, 48 h exposure
Description: as §1

NCI-H522 = experiment: NCI in vitro anticancer screen (SRB); assay type: cell-based, human; details: Non-small cell lung, 48 h exposure
Description: as §1

SK-OV-3 = experiment: NCI in vitro anticancer screen (SRB); assay type: cell-based, human; details: Ovarian, 48 h exposure
Description: as §1

OVCAR-3 = experiment: NCI in vitro anticancer screen (SRB); assay type: cell-based, human; details: Ovarian, 48 h exposure
Description: as §1

CAKI-1 = experiment: NCI in vitro anticancer screen (SRB); assay type: cell-based, human; details: Renal, 48 h exposure
Description: as §1

CCRF-CEM = experiment: NCI in vitro anticancer screen (SRB); assay type: cell-based, human; details: Leukemia, 48 h exposure
Description: as §1

K-562 = experiment: NCI in vitro anticancer screen (SRB); assay type: cell-based, human; details: Leukemia, 48 h exposure
Description: as §1

COLO 205 = experiment: NCI in vitro anticancer screen (SRB); assay type: cell-based, human; details: Colon, 48 h exposure
Description: as §1

MDA-MB-468 = experiment: NCI in vitro anticancer screen (SRB); assay type: cell-based, human; details: Breast, 48 h exposure
Description: as §1

calf thymus (CT) DNA [3] = details: [PBD]:[DNA] molar ratio 1:5; literature value; listed as SJC-136; cited from earlier work
[4] = human tumor cell lines, 48 h drug exposure, SRB

1,1′-{[(bisbutane-1,N-diyl)piperazine]dioxy}bis[(11aS)-2-fluoro-7-methoxy-1,2,3,11a-tetrahydro-5H-pyrrolo[2,1-c][1,4]benzodiazepine-5-one] [IXb]
ΔTm after incubation at 37° C. for 0 h (calf thymus (CT) DNA [1]): 38.0 °C

1,1′-{[(bispentane-1,N-diyl)piperazine]dioxy}bis[(11aS)-2-fluoro-7-methoxy-1,2,3,11a-tetrahydro-5H-pyrrolo[2,1-c][1,4]benzodiazepine-5-one] [IXc]
ΔTm after incubation at 37° C. for 0 h (calf thymus (CT) DNA [1]): 37.0 °C

COc1cc2c(cc1OCCCN1CCN(CCCOc3cc4c(cc3OC)C(=O)N3CC(F)C[C@H]3C=N4)CC1)N=C[C@@H]1CC(F)CN1C2=O (stereo partly drawn) [Compound IXa, 1,1′-{[(bispropane-1,N-diyl)piperazine]dioxy}bis[(11aS)-2-fluoro-7-methoxy-1,2,3,11a-tetrahydro-5H-pyrrolo[2,1-c][1,4]benzodiazepine-5-one]]
ΔTm after incubation at 37° C. for 0 h (calf thymus (CT) DNA [1]): 37.0 °C | GI50 ([2]; against fifty nine cell lines in nine cell panels): < 95 nM | Log10 GI50 mean graph midpoint (MG_MID) [2, 4]: −7.28 | Log10 LC50 mean graph midpoint (MG_MID) [2, 4]: −4.65 | Log10 TGI mean graph midpoint (MG_MID) [2, 4]: −6.12 | GI50 (M14): 35 nM | GI50 (HOP-62): 12 nM | GI50 (MCF7): 10 nM | GI50 (SK-MEL-2): 43 nM | GI50 (T-47D): 13 nM | GI50 (SNB-19): 28 nM | GI50 (MALME-3M): 24 nM | GI50 (BT-549): 95 nM | GI50 (SK-MEL-28): 31 nM | GI50 (SK-MEL-28; listed as IX a): 43 nM | GI50 (HL-60(TB)): 10 nM | GI50 (SK-MEL-5): 31 nM | GI50 (SF-268): 11 nM | GI50 (SNB-75): 33 nM | GI50 (HOP-92): 96 nM | GI50 (PC-3): 15 nM | GI50 (HCT-116): 28 nM | GI50 (U251): 15 nM | GI50 (RPMI-8226): 22 nM | GI50 (SW-620): 56 nM | GI50 (UACC-62): 26 nM | GI50 (LOX IMVI): 17 nM | GI50 (NCI-H23): 32 nM | GI50 (NCI-H460): 10 nM | GI50 (SR): 10 nM | GI50 (SN12C): 18 nM | GI50 (IGROV1): 59 nM | GI50 (HS 578T): 48 nM | GI50 (SF-539): 11 nM | GI50 (MOLT-4): 10 nM | GI50 (DU-145): 47 nM | GI50 (A498): 66 nM | GI50 (MDA-MB-435): 34 nM | GI50 (786-0): 39 nM | GI50 (NCI-H522): 10 nM | GI50 (SK-OV-3): 70 nM | GI50 (OVCAR-3): 48 nM | GI50 (CAKI-1): 28 nM | GI50 (CCRF-CEM): 10 nM | GI50 (K-562): 15 nM | GI50 (COLO 205): 40 nM | GI50 (MDA-MB-468): 10 nM

COc1cc2c(cc1OCCCOc1cc3c(cc1OC)C(=O)N1CCC[C@H]1C=N3)N=C[C@@H]1CCCN1C2=O [DSB-120, reference compound]
ΔTm after incubation at 37° C. for 0 h (calf thymus (CT) DNA [1]): 10.2 °C

COc1cc2c(cc1OCCCCN1CCN(CCCCOc3cc4c(cc3OC)C(=O)N3CC(F)(F)C[C@H]3C=N4)CC1)N=C[C@@H]1CC(F)(F)CN1C2=O [IXe, 1,1′-{[(bisbutane-1,N-diyl)piperazine]dioxy}bis[(11aS)-2-2-difluoro-7-methoxy-1,2,3,11a-tetrahydro-5H-pyrrolo[2,1-c][1,4]benzodiazepine-5-one]]
ΔTm after incubation at 37° C. for 0 h (calf thymus (CT) DNA [1]): 14.0 °C

COc1cc2c(cc1OCCCCCN1CCN(CCCCCOc3cc4c(cc3OC)C(=O)N3CC(F)(F)C[C@H]3C=N4)CC1)N=C[C@@H]1CC(F)(F)CN1C2=O [IXf, 1,1′-{[(bispentane-1,N-diyl)piperazine]dioxy}bis[(11aS)-2-2-difluoro-7-methoxy-1,2,3,11a-tetrahydro-5H-pyrrolo[2,1-c][1,4]benzodiazepine-5-one]]
ΔTm after incubation at 37° C. for 0 h (calf thymus (CT) DNA [1]): 13.0 °C

C=C1C[C@H]2C=Nc3cc(OCCCOc4cc5c(cc4OC)C(=O)N4CC(=C)C[C@H]4C=N5)c(OC)cc3C(=O)N2C1 [SJG-136]
ΔTm after incubation at 37° C. for 0 h (calf thymus (CT) DNA [3]): 25 °C

Source: patent publication US8383618B2, “C2-fluoro substituted piperazine linked pyrrolo[2,1-C][1,4] benzodiazepine dimers and a process for the preparation thereof” (Council of Scientific & Industrial Research, priority 2008, dated 2013)
